# Measurements: PMC9804084, “Multiple drug transporters contribute to the brain transfer of levofloxacin” (CNS Neuroscience & Therapeutics, 2022)
# Read-outs that look alike come from different tables or passages of the source.
# Assay: In vivo microdialysis pharmacokinetics of LVFX without transporter inhibitors
# Design: species or system rat
# Conditions: for AUC(0-inf) / Cmax / AUC(0-t) / Tmax / Kp / MRT / half-life: rat; for AUC(0-inf) / Cmax / AUC(0-t) / Tmax / MRT / half-life: iv; for AUC(0-inf) / Cmax / AUC(0-t) / MRT / half-life: 50 mg/kg, mean ± SD; for AUC(0-t): read-out: AUC0–180 (converted); for Kp: intravenous, LVFX 50 mg/kg tail vein, no inhibitor
# Protocol: On the day of surgery, rats were anesthetized using inhaled isoflurane via a facemask. The rats were placed in a stereotaxic frame (Gene&I), and the body temperature was maintained with a homoeothermic blanket set at 37°C. A midline incision was made to expose the skull. According to the Paxinos and Watson atlas, two microdialysis intracerebral guide cannulae (Eicom Co.) were implanted into the hippocampus CA1 region (Hp‐CA1 coordinates: AP −4.16 mm; ML −2.2 mm; DV −2.9 mm) and lateral ventricle (LV coordinates: AP −1.4 mm; ML +2.2 mm; DV −3.4 mm). Fixed to the skull using a screw and dental cement. After 3 days of recovery, the rats were anesthetized with isoflurane again. An intravascular probe (TP‐100‐20; 20 mm, Eicom Co.) was implanted into the jugular vein toward the right atrium. After the blood microdialysis probe was positioned within the jugular vein, the pipeline was connected to perfuse with ACD solution (citric acid 3.5 mM; sodium citrate 7.5 mM; dextrose 13.6 mM) at a flow rate of […], and the Hamilton microinjection pump was used for continuous perfusion. After stopping isoflurane inhalation, the rats were allowed to wake up naturally on the homoeothermic blanket. The awake rats were placed in a device that allowed them to move freely. Animals were allowed to recover for an additional 24 h.
# All microdialysate concentrations (C m) from the hippocampal ECF and lateral ventricle CSF were converted to the unbound drug concentration (C u) at the target site using the following formula: C u = C m/R dial.
# A total of 32 rats were randomly divided into the following groups: • Control group, N = 12: vehicle solution + LVFX (50 mg/kg). • TAR group, N = 5: Tariquidar (8 mg/kg) + LVFX (50 mg/kg). • Ko143 group, N = 5: Ko143 (15 mg/kg) + LVFX (50 mg/kg). • MK571 group, N = 5: MK571 (20 mg/kg) + LVFX (50 mg/kg). • PRO group, N = 5: Probenecid (50 mg/kg) + LVFX (50 mg/kg).
# Given that the solvents of intervention drugs were different, the control group was subdivided into four subgroups (n = 3). According to the preparation method of the transporter regulator, an equal volume of solvent was used as the control.
# Levofloxacin was freshly dissolved in isotonic saline and administered via tail vein injection. Thirty minutes before LVFX administration, the intervention drugs of each group were injected intraperitoneally. To reduce the possible effect of solvents on BBB or BCSFB permeability of LVFX, we prioritized water as the solvent. However, Tariquidar and Ko143 are insoluble in water, and a cosolvent must be used to prepare agents that animals can tolerate. According to the different physicochemical properties of these four inhibitors, the preparation of each transporter inhibitor solution in this experiment was as follows. • P‐glycoprotein (P‐gp) inhibitor Tariquidar[22]: Tariquidar was freshly dissolved in DMSO to 8 mg/ml and then diluted to 4 mg/ml with a solution containing 10% Tween‐80, 25% PEG300, and 65% sterile water. • Breast cancer resistance protein (BCRP) inhibitor Ko143[23]: Ko143 was freshly dissolved in DMSO to 15 mg/ml and then diluted to 7.5 mg/ml with a solution containing 10% Tween‐80, 25% PEG300, and 65% sterile water. • Multidrug resistance‐associated proteins (MRPs) inhibitor MK571[24]: MK571 sodium salt hydrate was dissolved in 1.25% (w/v) aq sodium hydrogen carbonate (NaHCO3) solution to obtain a concentration of 10 mg/ml. • Organic anion transporters (OATs) inhibitor probenecid[25]: Probenecid was dissolved in NaOH (pH = 9.0–9.2) alkalized physiological saline to obtain a concentration of 25 mg/ml.
# The pipelines where the blood and brain probes were installed were perfused at the speed of 2 μl/min with ACD solution and ACSF, respectively. Two brain probes were inserted into guide cannulas of the target site and allowed to equilibrate for 1 h. Subsequently, the rats were treated according to their corresponding groups in the device where they could move freely.
# [1] = CSF (lateral ventricle microdialysate), CSF, Group 1: vehicle solution of Tariquidar/Ko143 + LVFX 50 mg/kg, n=3
# [2] = CSF (lateral ventricle microdialysate), CSF, Group 2: 1.25% NaHCO3 solution + LVFX 50 mg/kg, n=3
# [3] = CSF (lateral ventricle microdialysate), CSF, Group 4: LVFX 50 mg/kg alone, n=3
# [4] = CSF (lateral ventricle microdialysate), pH 9, CSF, Group 3: physiological saline alkalinized with NaOH (pH 9.0–9.2) + LVFX 50 mg/kg, n=3
# [5] = CSF, CSF, Group 1: vehicle solution of Tariquidar/Ko143 + LVFX 50 mg/kg, n=3
# [6] = CSF, CSF, Group 2: 1.25% NaHCO3 solution + LVFX 50 mg/kg, n=3
# [7] = CSF, CSF, Group 4: LVFX 50 mg/kg alone, n=3
# [8] = CSF, pH 9, CSF, Group 3: physiological saline alkalinized with NaOH (pH 9.0–9.2) + LVFX 50 mg/kg, n=3
# [9] = blood (microdialysate, unbound), blood, Group 1: vehicle solution of Tariquidar/Ko143 + LVFX 50 mg/kg, n=3
# [10] = blood (microdialysate, unbound), blood, Group 2: 1.25% NaHCO3 solution + LVFX 50 mg/kg, n=3
# [11] = blood (microdialysate, unbound), blood, Group 4: LVFX 50 mg/kg alone, n=3
# [12] = blood (microdialysate, unbound), pH 9, blood, Group 3: physiological saline alkalinized with NaOH (pH 9.0–9.2) + LVFX 50 mg/kg, n=3
# [13] = blood, blood, control group, vehicle + LVFX 50 mg/kg tail vein, N=12
# [14] = brain ECF, brain ECF, Group 1: vehicle solution of Tariquidar/Ko143 + LVFX 50 mg/kg, n=3
# [15] = brain ECF, brain ECF, Group 2: 1.25% NaHCO3 solution + LVFX 50 mg/kg, n=3
# [16] = brain ECF, brain ECF, Group 4: LVFX 50 mg/kg alone, n=3
# [17] = brain ECF, pH 9, brain ECF, Group 3: physiological saline alkalinized with NaOH (pH 9.0–9.2) + LVFX 50 mg/kg, n=3
# [18] = hippocampal brain ECF (microdialysate, unbound), hippocampal brain ECF, control group, vehicle + LVFX 50 mg/kg tail vein, N=12
# [19] = lateral ventricle CSF (microdialysate, unbound), lateral ventricle CSF, control group, vehicle + LVFX 50 mg/kg tail vein, N=12
smiles,measurement,setting,value
"C[C@H]1COc2c(N3CCN(C)CC3)c(F)cc3c(=O)c(C(=O)O)cn1c23 [LVFX, Levofloxacin]",T max,"CSF, Group 2: 1.25% NaHCO3 solution + LVFX 50 mg/kg, n=3",15 min
same,T max,"CSF, Group 4: LVFX 50 mg/kg alone, n=3",15 min
same,T max,"blood, Group 2: 1.25% NaHCO3 solution + LVFX 50 mg/kg, n=3",15 min
same,T max,"blood, control group, vehicle + LVFX 50 mg/kg tail vein, N=12",15 min
same,T max,"brain ECF, Group 2: 1.25% NaHCO3 solution + LVFX 50 mg/kg, n=3",15 min
same,T max,"brain ECF, Group 4: LVFX 50 mg/kg alone, n=3",15 min
same,AUC(0-inf),[1],4080 ng·h/mL
same,Cmax,[1],3540 ± 150 ng/mL
same,AUC(0-t),[1],3810 ng·h/mL
same,AUC(0-inf),[2],4490 ng·h/mL
same,Cmax,[2],3860 ± 320 ng/mL
same,AUC(0-t),[2],4140 ng·h/mL
same,Cmax,[3],3480 ± 370 ng/mL
same,AUC(0-t),[3],4330 ng·h/mL
same,AUC(0-inf),[4],4950 ng·h/mL
same,Cmax,[4],3700 ± 140 ng/mL
same,AUC(0-t),[4],4490 ng·h/mL
same,Tmax,[1],15 min
same,Tmax,"CSF (lateral ventricle microdialysate), CSF, Group 3: physiological saline alkalinized with NaOH (pH 9.0–9.2) + LVFX 50 mg/kg, n=3",15 min
same,Kp,"CSF / blood (unbound, microdialysate), AUCu,CSF/AUCu,blood, control group, N=12, read-out: K p,uu,CSF",0.412 ± 0.024
same,MRT,[5],70.8 min
same,half-life,[5],38 ± 11.9 min
same,MRT,[6],74 min
same,half-life,[6],50.6 ± 8.78 min
same,AUC(0-inf),[7],4680 ng·h/mL
same,MRT,[7],76.7 min
same,half-life,[7],42.2 ± 5.6 min
same,MRT,[8],81.8 min
same,half-life,[8],45.8 ± 19.7 min
same,AUC(0-inf),[9],11000 ng·h/mL
same,MRT,[9],63.9 min
same,half-life,[9],40.5 ± 5.68 min
same,AUC(0-t),[9],10300 ng·h/mL
same,AUC(0-inf),[10],11700 ng·h/mL
same,MRT,[10],73.9 min
same,half-life,[10],50.5 ± 9.53 min
same,AUC(0-t),[10],10700 ng·h/mL
same,AUC(0-inf),[11],11700 ng·h/mL
same,MRT,[11],86.2 min
same,half-life,[11],60.6 ± 11.2 min
same,AUC(0-t),[11],10200 ng·h/mL
same,AUC(0-inf),[12],10100 ng·h/mL
same,MRT,[12],69.3 min
same,half-life,[12],45.3 ± 6.27 min
same,AUC(0-t),[12],9340 ng·h/mL
same,Tmax,[11],15 min
same,Cmax,"blood, blood, Group 1: vehicle solution of Tariquidar/Ko143 + LVFX 50 mg/kg, n=3",10400 ± 1040 ng/mL
same,Cmax,"blood, blood, Group 2: 1.25% NaHCO3 solution + LVFX 50 mg/kg, n=3",10700 ± 320 ng/mL
same,Cmax,"blood, blood, Group 4: LVFX 50 mg/kg alone, n=3",9970 ± 590 ng/mL
same,AUC(0-inf),[13],11100 ng·h/mL
same,Cmax,[13],10200 ± 700 ng/mL
same,MRT,[13],73.3 min
same,half-life,[13],49.2 ± 10.6 min
same,AUC(0-t),[13],10200 ng·h/mL
same,Cmax,"blood, pH 9, blood, Group 3: physiological saline alkalinized with NaOH (pH 9.0–9.2) + LVFX 50 mg/kg, n=3",9780 ± 390 ng/mL
same,Kp,"brain ECF / blood, AUCu,ECF/AUCu,blood, control group, N=12, read-out: K p,uu,ECF",0.34 ± 0.017
same,AUC(0-inf),[14],3730 ng·h/mL
same,Cmax,[14],2920 ± 520 ng/mL
same,MRT,[14],74.1 min
same,half-life,[14],39.8 ± 14.3 min
same,AUC(0-t),[14],3480 ng·h/mL
same,AUC(0-inf),[15],3600 ng·h/mL
same,Cmax,[15],2720 ± 150 ng/mL
same,MRT,[15],84.1 min
same,half-life,[15],53.4 ± 9.24 min
same,AUC(0-t),[15],3240 ng·h/mL
same,AUC(0-inf),[16],3940 ng·h/mL
same,Cmax,[16],3050 ± 760 ng/mL
same,MRT,[16],80.9 min
same,half-life,[16],49 ± 17.9 min
same,AUC(0-t),[16],3600 ng·h/mL
same,AUC(0-inf),[17],3820 ng·h/mL
same,Cmax,[17],2540 ± 170 ng/mL
same,MRT,[17],84 min
same,half-life,[17],49.8 ± 20.7 min
same,AUC(0-t),[17],3470 ng·h/mL
same,AUC(0-inf),[18],3770 ng·h/mL
same,Cmax,[18],2710 ± 300 ng/mL
same,MRT,[18],80.8 min
same,half-life,[18],48 ± 14.7 min
same,AUC(0-t),[18],3450 ng·h/mL
same,Tmax,[18],15 min
same,Tmax,"blood, Group 1: vehicle solution of Tariquidar/Ko143 + LVFX 50 mg/kg, n=3",15 min
same,Tmax,"blood, Group 3: physiological saline alkalinized with NaOH (pH 9.0–9.2) + LVFX 50 mg/kg, n=3",15 min
same,Tmax,"brain ECF, Group 1: vehicle solution of Tariquidar/Ko143 + LVFX 50 mg/kg, n=3",15 min
same,Tmax,"brain ECF, Group 3: physiological saline alkalinized with NaOH (pH 9.0–9.2) + LVFX 50 mg/kg, n=3",15 min
same,AUC(0-inf),[19],4550 ng·h/mL
same,Cmax,[19],3650 ± 270 ng/mL
same,MRT,[19],75.8 min
same,half-life,[19],44.1 ± 11.8 min
same,AUC(0-t),[19],4190 ng·h/mL
same,Tmax,[19],15 min
same,difference in LVFX concentration (and AUC value) between brain ECF and CSF,with or without treatment with transporter inhibitors,< 3 fold
